The results in this text go back to patent US10457707B2, “Substituted urea depsipeptide analogs as activators of the CLPP endopeptidase” (priority 2015, dated 2019).

Values after ≈ are worked out from the molar mass of the structure shown. *1 amine or outer side, *2 acyl side, *3 side chain or, on linkers, in order; H or OH if unused. Where a SMILES comes first, the peptide text is derived from it. Bridges are numbered along the chain shown (N, C = ends). [ ]: non-standard residue; d: D form. The star is where a group is joined. ξ: configuration not given here. Phe(3,5-F2) = N[C@@H](Cc1cc(F)cc(F)c1)C(=O)O; NMepT = CN[C@H](C(=O)O)[C@@H](C)OP(=O)(O)O; NH(4-OCF3-phenyl) = FC(F)(F)Oc1ccc(N*)cc1; Pro(4S-Me) = C[C@@H]1CN[C@H](C(=O)O)C1; Pro(4R-Me) = C[C@H]1CN[C@H](C(=O)O)C1; ξPro(4R-OH) = O=C(O)C1C[C@@H](O)CN1; ξPro(4R-Me) = C[C@H]1CNC(C(=O)O)C1; NH(4-Et-phenyl) = CCc1ccc(N*)cc1; NMeT = CN[C@H](C(=O)O)[C@@H](C)O; NH(4-Me-phenyl) = Cc1ccc(N*)cc1; aThr = C[C@H](O)[C@H](N)C(=O)O; NMeA = CN[C@@H](C)C(=O)O; CO = O=C([*:1])[*:2]

Series [1] addresses T1, Sa-ClpP (Staphylococcus aureus, UniProt Q2G036).
T1 construct: made in house; host or cells: E. coli BL21(DE3)
T1 sequence (Q2G036 1-195): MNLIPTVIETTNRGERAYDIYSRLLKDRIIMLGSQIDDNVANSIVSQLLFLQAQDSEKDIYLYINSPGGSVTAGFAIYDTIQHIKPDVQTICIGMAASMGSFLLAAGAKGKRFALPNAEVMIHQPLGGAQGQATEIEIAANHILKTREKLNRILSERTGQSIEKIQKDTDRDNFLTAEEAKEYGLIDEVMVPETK
Put plainly: Casein-BODIPY assay, second described ClpP activation method (EnzCheck Protease Assay, 384 well). The conditions noted are these: values marked †: second described ClpP activation assay. The class given is biochemical, S. aureus. The protocol: Alternatively, the assay was carried out using EnzCheck Protease Assay (Molecular Probes, Catalog # E6638). The assay was performed in black 384 well, flat bottom, low volume plates (Greiner Bio-One, Monroe, N.C., catalog #784076). 10 μL of Tris*HCl buffer, pH 8.0 with 0.01% Triton X-100 was pipetted into each well using a Well-Mate (Thermo Scientific, Waltham, Mass.). 0.4 μL test compounds or controls (2% DMSO v/v) were added to each well using a Biomek FX liquid handling robot (Beckman Coulter, Indianapolis Ind.). After addition of test compounds and controls, 10 μL of master mix containing 2 μM Sa-ClpP and 2 μM substrate (Bodipy-FL labeled casein) in Tris*HCl buffer, pH 8.0 with 0.01% (v/v) Triton X-100, was pipetted into each well. All assays were performed in triplicate, under linear velocity conditions. Increase in fluorescent signal following activation of Sa-ClpP by test compounds and controls was measured over time period of 30 mins using filters with excitation at 485±15 nm and emission at 520±25 nm on a PHERAstar FS Multilabel reader (BMG, Cary, N.C.). […] Data analysis was done by measuring rate of casein degradation over time (slopes). Computed degradation rates (slopes) were normalized to positive (ADEP4) or negative (DMSO) controls. Using nonlinear regression curve fitting EC50 values and % activation were determined using the equation “log [agonist] vs. Response-variable slope (four parameters)-symmetrical” in the program Prism 6 (GraphPad Software, La Jolla, Calif. USA, www.graphpad.com).

Series [2] concerns Staphylococcus aureus, USA 300 wherein ClpP is inactivated. As to the kind of experiment: Minimal inhibitory concentration assay. The class given is cell-based. A digest of the protocol:
(§1)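 CLSI broth microdilution: two-fold compound dilutions from 200 μM final, ~10^5 cfu/mL inoculum, aerobic overnight incubation at 37 °C. MIC read visually as lowest concentration preventing growth; S. aureus USA 300 compared with its ClpP-inactivated counterpart to check ClpP dependence.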

The test system of series [3] is Staphylococcus aureus, USA 300. Put plainly: Minimal inhibitory concentration assay. The class given is cell-based. The conditions noted are these: USA300, read-out: Minimal Inhibitory Concentrations S. aureus USA 300. The method, boiled down:
as §1

Series [4] in a line: physchem. The conditions noted are these: 22 °C, aqueous buffer, kinetic from dmso stock.

The EC50 is the concentration that produces a half-maximal response. Low values mean greater potency, high ones weaker potency. `Cc1ccc(NC(=O)N[C@@H](Cc2cc(F)cc(F)c2)C(=O)N[C@@H]2C(=O)N3C[C@H](O)CC3C(=O)N(C)[C@@H](C)C(=O)N[C@@H](C)C(=O)N3C[C@H](C)CC3C(=O)O[C@H]2C)cc1` (stereo partly drawn) [Compound 31, (S)-3-(3,5-difluorophenyl)-N-((2S,6S,9S,11aS,13R,17S,18S,20aS)-13-hydroxy-2,6,9,10,18-pentamethyl-5,8,11,16,20-pentaoxohexadecahydro-1H,5H,16H-dipyrrolo[2,1-c:2′,1′-l][1]oxa[4,7,10,13]tetraazacyclohexadecin-17-yl)-2-(3-(p-tolyl)ureido)propanamide] ({NH(4-Me-phenyl)-CO}-[Phe(3,5-F2)][aThr][ξPro(4R-OH)][NMeA]A[ξPro(4R-Me)]; ester 2-C) had an EC50 in series [1] of 370 ± 30 nM. In addition, the “Minimal Inhibitory Concentrations S. aureus USA 300 ΔClpP” value in series [2] is above 200 µM. The MIC in series [3] was found to be 1.56 µM (≈ 1.24 µg/mL).
`Cc1ccc(NC(=O)N[C@@H](Cc2cc(F)cc(F)c2)C(=O)N[C@@H]2C(=O)N3CCC[C@H]3C(=O)N(C)[C@@H]([C@@H](C)O)C(=O)N[C@@H](C)C(=O)N3C[C@@H](C)C[C@H]3C(=O)O[C@H]2C)cc1` [Compound 35, (S)-3-(3,5-difluorophenyl)-N-((2S,6S,9S,11aS,17S,18S,20aS)-9-((R)-1-hydroxyethyl)-2,6,10,18-tetramethyl-5,8,11,16,20-pentaoxohexadecahydro-1H,5H,16H-dipyrrolo[2,1-c:2′,1′-l][1]oxa[4,7,10,13]tetraazacyclohexadecin-17-yl)-2-(3-(p-tolyl)ureido)propanamide] ({NH(4-Me-phenyl)-CO}-[Phe(3,5-F2)][aThr]P[NMeT]A[Pro(4S-Me)]; ester 2-C): the EC50 in series [1] is 480 ± 30 nM. For the same compound, the “Minimal Inhibitory Concentrations S. aureus USA 300 ΔClpP” value in series [2] worked out at 200 µM. For the same compound, the MIC in series [3] is 0.2 µM (≈ 0.162 µg/mL).
On the same counts, the results for `C[C@H]1C[C@H]2C(=O)O[C@@H](C)[C@H](NC(=O)[C@H](Cc3cc(F)cc(F)c3)NC(=O)Nc3ccc(OC(F)(F)F)cc3)C(=O)N3CCC[C@H]3C(=O)N(C)[C@@H]([C@@H](C)O)C(=O)N[C@@H](C)C(=O)N2C1` [Compound 36, (S)-3-(3,5-difluorophenyl)-N-((2S,6S,9S,11aS,17S,18S,20aS)-9-((R)-1-hydroxyethyl)-2,6,10,18-tetramethyl-5,8,11,16,20-pentaoxohexadecahydro-1H,5H,16H-dipyrrolo[2,1-c:2′,1′-l][1]oxa[4,7,10,13]tetraazacyclohexadecin-17-yl)-2-(3-(4-(trifluoromethoxy)phenyl)ureido)propanamide] ({NH(4-OCF3-phenyl)-CO}-[Phe(3,5-F2)][aThr]P[NMeT]A[Pro(4S-Me)]; ester 2-C) are 430 ± 10 nM, 50 µM and 0.1 µM (≈ 0.0882 µg/mL).
On the same counts, the results for `CCc1ccc(NC(=O)N[C@@H](Cc2cc(F)cc(F)c2)C(=O)N[C@@H]2C(=O)N3CCC[C@H]3C(=O)N(C)[C@@H]([C@@H](C)O)C(=O)N[C@@H](C)C(=O)N3C[C@@H](C)C[C@H]3C(=O)O[C@H]2C)cc1` [Compound 37, (S)-3-(3,5-difluorophenyl)-2-(3-(4-ethylphenyl)ureido)-N-((2S,6S,9S,11aS,17S,18S,20aS)-9-((R)-1-hydroxyethyl)-2,6,10,18-tetramethyl-5,8,11,16,20-pentaoxohexadecahydro-1H,5H,16H-dipyrrolo[2,1-c:2′,1′-l][1]oxa[4,7,10,13]tetraazacyclohexadecin-17-yl)propanamide] ({NH(4-Et-phenyl)-CO}-[Phe(3,5-F2)][aThr]P[NMeT]A[Pro(4S-Me)]; ester 2-C) are 350 ± 10 nM, 100 µM and 0.1 µM (≈ 0.0826 µg/mL).
On the same counts, the results for `Cc1ccc(NC(=O)N[C@@H](Cc2cc(F)cc(F)c2)C(=O)N[C@@H]2C(=O)N3CCC[C@H]3C(=O)N(C)[C@@H]([C@@H](C)O)C(=O)N[C@@H](C)C(=O)N3C[C@H](C)C[C@H]3C(=O)O[C@H]2C)cc1` [Compound 38, (S)-3-(3,5-difluorophenyl)-N-((2R,6S,9S,11aS,17S,18S,20aS)-9-((R)-1-hydroxyethyl)-2,6,10,18-tetramethyl-5,8,11,16,20-pentaoxohexadecahydro-1H,5H,16H-dipyrrolo[2,1-c:2′,1′-l][1]oxa[4,7,10,13]tetraazacyclohexadecin-17-yl)-2-(3-(p-tolyl)ureido)propanamide] ({NH(4-Me-phenyl)-CO}-[Phe(3,5-F2)][aThr]P[NMeT]A[Pro(4R-Me)]; ester 2-C) are 330 ± 10 nM, 200 µM and 0.1 µM (≈ 0.0812 µg/mL).
As for `C[C@@H]1C[C@H]2C(=O)O[C@@H](C)[C@H](NC(=O)[C@H](Cc3cc(F)cc(F)c3)NC(=O)Nc3ccc(OC(F)(F)F)cc3)C(=O)N3CCC[C@H]3C(=O)N(C)[C@@H]([C@@H](C)O)C(=O)N[C@@H](C)C(=O)N2C1` [Compound 41, (S)-3-(3,5-difluorophenyl)-N-((2R,6S,9S,11aS,17S,18S,20aS)-9-((R)-1-hydroxyethyl)-2,6,10,18-tetramethyl-5,8,11,16,20-pentaoxohexadecahydro-1H,5H,16H-dipyrrolo[2,1-c:2′,1′-l][1]oxa[4,7,10,13]tetraazacyclohexadecin-17-yl)-2-(3-(4-(trifluoromethoxy)phenyl)ureido)propanamide] ({NH(4-OCF3-phenyl)-CO}-[Phe(3,5-F2)][aThr]P[NMeT]A[Pro(4R-Me)]; ester 2-C), the EC50 in series [1] amounted to 310 ± 10 nM. For the same compound, the “Minimal Inhibitory Concentrations S. aureus USA 300 ΔClpP” value in series [2] was found to be 50 µM. Moreover, in series [3], the MIC was found to be 0.02 µM (≈ 0.0176 µg/mL).
On the same counts, the results for `CCc1ccc(NC(=O)N[C@@H](Cc2cc(F)cc(F)c2)C(=O)N[C@@H]2C(=O)N3CCC[C@H]3C(=O)N(C)[C@@H]([C@@H](C)O)C(=O)N[C@@H](C)C(=O)N3C[C@H](C)C[C@H]3C(=O)O[C@H]2C)cc1` [Compound 42, (S)-3-(3,5-difluorophenyl)-2-(3-(4-ethylphenyl)ureido)-N-((2R,6S,9S,11aS,17S,18S,20aS)-9-((R)-1-hydroxyethyl)-2,6,10,18-tetramethyl-5,8,11,16,20-pentaoxohexadecahydro-1H,5H,16H-dipyrrolo[2,1-c:2′,1′-l][1]oxa[4,7,10,13]tetraazacyclohexadecin-17-yl)propanamide] ({NH(4-Et-phenyl)-CO}-[Phe(3,5-F2)][aThr]P[NMeT]A[Pro(4R-Me)]; ester 2-C) are 250 ± 30 nM, 100 µM and 0.1 µM (≈ 0.0826 µg/mL).
As a reminder, the solubility is how much of the substance goes into solution per volume. High values mean much dissolved substance, low ones little dissolved substance. For `Cc1ccc(NC(=O)N[C@@H](Cc2cc(F)cc(F)c2)C(=O)N[C@@H]2C(=O)N3CCC[C@H]3C(=O)N(C)[C@@H]([C@@H](C)OP(=O)(O)O)C(=O)N[C@@H](C)C(=O)N3C[C@@H](C)C[C@H]3C(=O)O[C@H]2C)cc1` [Compound 188, (R)-1-((2S,6S,9S,11aS,17S,18S,20aS)-17-((S)-3-(3,5-difluorophenyl)-2-(3-(p-tolyl)ureido)propanamido)-2,6,10,18-tetramethyl-5,8,11,16,20-pentaoxohexadecahydro-1H,5H,16H-dipyrrolo[2,1-c:2′,1′-l][1]oxa[4,7,10,13]tetraazacyclohexadecin-9-yl)ethyl dihydrogen phosphate] ({NH(4-Me-phenyl)-CO}-[Phe(3,5-F2)][aThr]P[NMepT]A[Pro(4S-Me)]; ester 2-C), the “Minimal Inhibitory Concentrations S. aureus USA 300 ΔClpP” value in series [2] is above 200 µM. Also, the MIC in series [3] stood at 50 µM. In series [4], this compound returned a solubility of 107 ± 2.7 µM.
